From patent US8623340B2, “Omega-cyclohexylalkan-1-oles and use thereof as antimicrobial actives to combat body odor” (Symrise AG, priority 2009, dated 2014)
Values after ≈ are worked out from the molar mass of the structure shown.

Key:
Assay type in all cases: cell-based
[1] = system: Corynebacterium xerosis (DSM 20743, ATCC 373) biofilm; assay: Biofilm, mid-log assay on pre-existing biofilm (crystal violet staining CV580); settings: 12.5 μg
Description: The recognition that the compounds of formula (I) are also very particularly suitable for either inhibition of initial biofilm formation and stagnation or even detachment of pre-existing biofilms is based on a series of investigations relating to the particularly relevant microorganism Corynebacterium xerosis. The antimicrobial action of the compounds of formula (I) on biofilms is hereby detected with the assistance of a staining method. Crystal violet staining is used to quantify amount of biofilm in the presence and absence of an antimicrobial active ingredient. A possible inhibitory action of the test substance used is identified from the staining profile. […] Biofilm formation can be analyzed by crystal violet staining with subsequent spectroscopic quantitation at 580 nm (CV580). […] Optical density OD580 was then measured followed by crystal violet staining and spectroscopic quantitation of the biofilm at 580 nm (CV580). Mid-log time point was determined by cultivating untreated C. xerosis cells on separate control plates. CV580 crystal violet staining data of untreated control cells at mid-log were recorded. […] CV580 of untreated control samples was also recorded. […] Thus, untreated control cells will reach a value of 200%, corresponding to twice the exactly determined mid-log time point (half-maximal values for CV580; which was set 100%). […]

[2] = system: Brevibacterium epidermidis (ATCC 35514); assay: MIC determination by turbidimetric growth curves; settings: 16 h, 37° C., turbidimetry 620 nm
Description: (§1) The observation that the compounds of formula (I) are very particularly suitable for combating microorganisms which are responsible for body odor is based on a series of investigations relating to the particularly relevant microorganisms Staphylococcus epidermidis Corynebacterium xerosis, and Brevibacterium epidermidis. The antimicrobial action of the compounds of formula (I) is here detected with the assistance of a turbidimetric measurement method. Turbidity measurement is used to establish growth curves for the particular microorganism in the presence and absence of an antimicrobial active ingredient. A possible inhibitory action of the test substance used is identified from the profile of the growth curves. Solutions with saline or DMSO for 100% growth are prepared as a negative control. The active substances to be investigated are first diluted in DMSO in reaction vessels. Dilution is carried out in accordance with the concentration range to be tested and corresponds in each case to 100 times the concentration of the subsequent final concentration in the test Testing is usually begun with a final concentration of 2000 ppm (corresponding to 0.2 wt.-%) in the test. Growth curves at final concentrations of 1000 ppm, 500 ppm, 250 ppm, 125 ppm, 64 ppm, 32 ppm, 16 ppm and 8 ppm are subsequently determined. The bacterial cultures are then incubated in the presence of the various final concentrations of antimicrobial active ingredient for 16 h (incubation temperature: 37° C.). The absorption values (wavelength 620 nm; measurement interval: 20 minutes) obtained over the 16 hour period of turbidimetric measurement are recorded and exported into the spreadsheet program MS Excel. Means from in each case three parallel batches are calculated and used as the basis for establishing growth curves. The curves of the individual test sample concentrations are compared with those for the negative controls and the MIC value (minimum inhibitory concentration) is determined. The MIC value is the concentration at which no further growth is observable by turbidimetry.

[3] = system: Corynebacterium xerosis (DSM 20743); assay: MIC determination by turbidimetric growth curves; settings: 16 h, 37° C., turbidimetry 620 nm
Description: as §1

[4] = system: Staphylococcus epidermidis (ATCC 12228); assay: MIC determination by turbidimetric growth curves; settings: ATCC12228, 16 h, 37° C., turbidimetry 620 nm, read-out: MIC (complete inhibition of growth, usage concentration)
Description: as §1

[5] = system: Brevibacterium epidermidis (ATCC 35514); assay: quantitative suspension test
[6] = system: Corynebacterium xerosis (DSM 20743); assay: quantitative suspension test
[7] = system: Corynebacterium xerosis (DSM 20743, ATCC 373) biofilm; assay: Biofilm formation, classic assay (crystal violet staining CV580); settings: 12.5 μg/ml
Description: The recognition that the compounds of formula (I) are also very particularly suitable for either inhibition of initial biofilm formation and stagnation or even detachment of pre-existing biofilms is based on a series of investigations relating to the particularly relevant microorganism Corynebacterium xerosis. The antimicrobial action of the compounds of formula (I) on biofilms is hereby detected with the assistance of a staining method. Crystal violet staining is used to quantify amount of biofilm in the presence and absence of an antimicrobial active ingredient. A possible inhibitory action of the test substance used is identified from the staining profile. Corynebacterium xerosis can adhere to artificial laboratory surfaces and contribute to biofilm formation much the same way as it can do on skin in vivo. Therefore we furtheron established a test system to evaluate the influence of antimicrobial active compounds of formula (I) on Corynebacterium xerosis forming a biofilm or already residing in a biofilm. […] Biofilm formation can be analyzed by crystal violet staining with subsequent spectroscopic quantitation at 580 nm (CV580). […] Anti-microbial effects of test compounds on biofilm formation was determined by CV580 crystal violet staining 18-24 hours after inoculation and several washing steps that are needed to separate planctonic grown microorganisms.

[8] = system: Staphylococcus epidermidis (ATCC 12228); assay: quantitative suspension test

Compound	biofilm observed compared to the untreated control (set to 200%; mid-log value 100%) [1]	concentration establishing inhibition of the growth [2]	concentration establishing inhibition of the growth [3]	MIC [4]	antimicrobial activity in quantitative suspension test [5]	antimicrobial activity in quantitative suspension test [6]	biofilm formation inhibition [7]	antimicrobial activity in quantitative suspension test [8]
CC(CO)CCCC1CCCCC1 (stereo not shown) [5-cyclohexyl-2-methyl-pentanol]	53%	below 0.2 wt. %	below 0.2 wt. %	64 µg/mL (≈ 347 µM)	confirm the antimicrobial activity	confirm the antimicrobial activity	92%	confirm the antimicrobial activity
CCCC(CO)CCCC1CCCCC1 (stereo not shown) [5-cyclohexyl-2-n-propyl-pentanol]	100%	below 0.2 wt. %	below 0.2 wt. %	16 µg/mL (≈ 75.3 µM)	confirm the antimicrobial activity	confirm the antimicrobial activity	65%	confirm the antimicrobial activity
